# Source: US20240294465A1, “NOVEL ANTI-FIBROTIC DRUGS” (HELMHOLTZ ZENTRUM MUNCHEN - DEUTSCHES FORSCHUNGSZENTRUM FUR …, priority 2021, published 2024)
# Key:
# [1] = tested on: collagen I, collagen V, fibulin 1, fibronectin, αSMA protein in phLFs; experiment: Western blotting of ECM proteins and αSMA in phLFs (lysates and medium supernatants); assay type: cell-based, human
# Protocol: Cells were scraped off the plastic dish directly into 200 μl ice-cold RIPA buffer containing 1× Roche complete mini protease inhibitor cocktail. After incubating the samples for 30 minutes on ice, insoluble material was removed by centrifugation at 14.000 g for 15 minutes at 4° C. and the supernatant was further processed. Samples were mixed with 50 mM Tris-HCl, pH 6.8, 100 mM DTT, 2% SDS, 1% bromphenol blue, and 10% glycerol, and proteins were separated using standard SDS-10% PAGE. For immunoblotting, proteins were transferred to PVDF (Millipore (Billerica, MA, (USA)), 0.45 μm or 0.2 μm) membranes, which were blocked with 5% milk in TBST (0.1% Tween 20 in TBS) and incubated with primary, followed by HRP-conjugated secondary antibodies over night at 4° C. and at room temperature for 1 hour, respectively. For immunoblotting the following primary antibodies were used: monoclonal mouse anticollagen type 5 (1 mg/mL) from […] (Cat #sc-166155), polyclonal rabbit anti-collagen type 3 (1 mg/mL) from Rockland (Cat #600-401-105), polyclonal rabbit anti-collagen type 1 (1 mg/mL) from Rockland (Cat #600-401-103-0.5), monoclonal mouse anti-fibulin 1 (1 mg/mL) from SantaCruz (Cat #sc-25281), polyclonal rabbit anti-fibronectin (1 mg/mL) from SantaCruz (Cat #sc-9068), and monoclonal mouse anti-p-actin-peroxidase (AC-15, Sigma, 1:10000). Goat anti-rabbit and goat anti-mouse IgG conjugated to horseradish peroxidase (Cell Signaling, 1:10000) were applied as secondary antibodies. CXCL/IL-8 concentrations were determined using Human IL-8/CXCL8 DuoSet ELISA (DY208-05) according to the manufacturer's protocol.
# [2] = tested on: ECM deposition of collagen I, collagen V and fibulin 1 by phLFs+TGFβ1; experiment: 3D ECM deposition assay (collagen I, collagen V, fibulin 1), dose-response and live imaging; assay type: cell-based, human; conditions: phLFs+TGFβ1+EDHB
# Protocol: phLFs were cultured in DMEM F-12 medium with 20% fetal bovine serum (FBS) and antibiotic supplement as mentioned above. Cells were seeded with 6000 cells/well in 384-well CellCarrier plates (Perkin Elmer, Cat #6007550). Following overnight incubation, cells were starved in serum-reduced medium (1% FBS with 0.1 mM 2-phosphoascorbate (Sigma, Cat #49752)) for 24 h. Afterwards, cells were treated with TGFβ1 (1 ng/ml) or vehicle, and additionally small molecules or appropriate vehicle controls were added. […] Fluorescenceconjugation of the collagen type 1 antibody was done by using the AlexaFluor-555 Protein Labeling Kit (Invitrogen, Cat #A20174) according to manufacturer's instructions. […]
# Following fixation, the automated imaging was achieved by using aconfocal laser scanning microscope (LSM710, Zeiss) with automated focus detection for three-dimensional image acquisition (1024 px×1024 px×9 px which equals a dimension of 1417 μm×1417 μm×16 μm). For post-acquisition analysis images were imported into IMARIS software (Bitplane) and volume detection or alternatively quantification of the mean fluorescence intensity, as well as Hoechst-stained cell nuclei were automatically counted by using Imaris' spot detection algorithm. […]
# [3] = tested on: TGFβ1-induced fibulin-1 ECM deposition in primary human lung IPF-fibroblasts (phLFs); experiment: Assessing N23P activity in inhibiting ECM deposition in IPF-fibroblasts (fibulin-1 MFI); assay type: cell-based; conditions: for inhibition at 10 µM: Homo sapiens, 72 h, TGFβ1 1 ng/ml, MFI, one or two different IPF-phLFs (n=1-2)
# Protocol: phLFs were cultured in DMEM F-12 medium with 20% fetal bovine serum (FBS) and antibiotic supplement as mentioned above. Cells were seeded with 6000 cells/well in 384-well CellCarrier plates (Perkin Elmer, Cat #6007550). Following overnight incubation, cells were starved in serum-reduced medium (1% FBS with 0.1 mM 2-phosphoascorbate (Sigma, Cat #49752)) for 24 h. Afterwards, cells were treated with TGFβ1 (1 ng/ml) or vehicle, and additionally small molecules or appropriate vehicle controls were added. After 72 h of incubation, medium was changed for starving medium with 1 μg/mL AlexaFluor-488 fluorophore conjugated anti-collagen-type-5 antibodies (SantaCruz, Clone C-5, Cat #sc-166155 AF488), 0.66 μg/mL AlexaFluor-555 fluorophore conjugated anti-collagen-type-1 antibodies (Rockland, Cat #600-401-103-0.1), and 1 μg/mL AlexaFluor-637 fluorophore conjugated anti-fibulin 1 antibodies (SantaCruz, Clone C-5, Cat #sc-25281 AF647) and 1 μg/mL Hoechst H33342 (Sigma). Fluorescenceconjugation of the collagen type 1 antibody was done by using the AlexaFluor-555 Protein Labeling Kit (Invitrogen, Cat #A20174) according to manufacturer's instructions. Labeling efficacy was controlled by photometrical means.
# Following four hours of incubation, cells were washed three times with PBS and fixed with paraformaldehyde (PFA). For automated liquid handling in 384 well plates, an INTEGRA Assist Plus (INTEGRA, Zizers, Switzerland) equipped with an INTEGRA Viaflo 1I pipette (INTEGRA, Zizers, Switzerland, Cat #4642), 125 μL GripTips™ pipette tips (INTEGRA, Zizers, Switzerland, Cat #6464) and sterile reagent reservoirs (INTEGRA, Cat #4311) were applied. All automated pipetting steps with the INTEGRA Assist Plus were performed at 9.5 μL/s in order to ensure proper integrity and attachment of the deposited ECM to the culturing surface within the wells of the 384-well plates. During cell seeding the automated liquid handling was performed at 89.3 μL/s. Removal of liquids from the well-plates was done by manually inverting the plates.
# Following fixation, the automated imaging was achieved by using aconfocal laser scanning microscope (LSM710, Zeiss) with automated focus detection for three-dimensional image acquisition (1024 px×1024 px×9 px which equals a dimension of 1417 μm×1417 μm×16 μm). For post-acquisition analysis images were imported into IMARIS software (Bitplane) and volume detection or alternatively quantification of the mean fluorescence intensity, as well as Hoechst-stained cell nuclei were automatically counted by using Imaris' spot detection algorithm.
# Cells were seeded with 6000 cells/well in 384-well CellCarrier plates. After overnight incubation, cells were starved in serum-reduced medium (1% FBS with 0.1 mM 2-phosphoascorbate for 24 h). Then, phLFs were treated with TGFβ1 (1 ng/ml) or vehicle, and incubated together with synthesized N23Ps (10 μM) or appropriate vehicle controls. After 72 h of incubation, medium was changed for starvation medium with 1 μg/mL AlexaFluor-637 fluorophore conjugated anti-fibulin 1 antibodies (SantaCruz, Clone C-5, Cat #sc-25281 AF647) and 1 μg/mL Hoechst H33342 (Sigma). Following four hours of incubation, cells were washed three times with PBS and fixed with paraformaldehyde (PFA). Following fixation, the automated imaging was achieved by using a confocal laser scanning microscope (LSM710, Zeiss) with automated focus detection for three-dimensional image acquisition (1024 px×1024 px×9 px which equals a dimension of 1417 μm×1417 μm×16 μm). For post-acquisition analysis images were imported into IMARIS software (Bitplane) and quantified for the mean fluorescence intensity, as well as Hoechst-stained cell nuclei were automatically counted by using Imaris' spot detection algorithm.
# Assessment of ECM inhibition I: Mean fluorescence intensity (MFI) values represented the degree of fibulin-1 ECM deposition in three different IPF-phLFs (n=3). […]
# [4] = concomitant treatment with TGFβ1
structure (smiles),measurement,setting,value
C[C@H]1CCC/C=C/[C@@H]2C[C@H](O)C[C@H]2[C@H](O)/C=C/C(=O)O1 [BrefeldinA],secretion of collagen I and fibronectin,[1]; medium supernatants of phLFs,inhibited the secretion
"CCOC(=O)c1ccc(O)c(O)c1 [EDHB, Ethyl-3,4-dihydroxy-benzoate]","expression of intracellular collagen I, collagen V and fibulin 1",[1]; [4],statistically significant suppression
same,secreted collagen I,[1]; [4],significant suppression
same,"ECM deposition of collagen I, collagen V and fibulin 1",[2],inhibits the ECM deposition
"C#CCOc1ccc(/C=C/C(=O)Nc2ccccc2OCCC2(C)N=N2)cc1 [Example 167, (E)-N-(2-(2-(3-methyl-3H-diazirin-3-yl)ethoxy)phenyl)-3-(4-(prop-2-yn-1-yloxy)phenyl)acrylamide]",inhibition at 10 µM,[3],60 to 90%
"C#CCCCOc1ccc(/C=C/C(=O)Nc2ccccc2OCCC2(C)N=N2)cc1 [Example 168, (E)-N-(2-(2-(3-methyl-3H-diazirin-3-yl)ethoxy)phenyl)-3-(4-(pent-4-yn-1-yloxy)phenyl)acrylamide]",inhibition at 10 µM,[3],60 to 90%
"COc1ccc(/C=C/C(=O)Nc2ccccc2C(=O)O)cc1OC [Tranilast, reference compound]",inhibition of TGFβ1-induced ECM deposition,[3]; at 10 μM,no inhibition
